Assay: Study KAR5585-101 Part 1 (SAD): plasma pharmacokinetics after a single oral dose of KAR5585, fasting and fed (incl. dose proportionality and food effect)
Settings: human, plasma, po; for AUC: AUC0-tau; for half-life: t1/2, KAR5417 after 400 mg KAR5585 single oral; for Tmax: Median
[1] = 400 mg, Geometric Mean, Cohort 3A (Fasting), 400 mg KAR5585 single oral dose, fasting
[2] = 400 mg, Geometric Mean, Cohort 3B (Fed), 400 mg KAR5585 single oral dose, fed
[3] = 400 mg, KAR5417 after 400 mg KAR5585 single oral, fasted, Cohort 3A, Geo. Mean
[4] = 400 mg, KAR5417 after 400 mg KAR5585 single oral, fasted, Cohort 3A, Mean
[5] = 400 mg, KAR5417 after 400 mg KAR5585 single oral, fed, Cohort 3B, Geo. Mean
[6] = 400 mg, KAR5417 after 400 mg KAR5585 single oral, fed, Cohort 3B, Mean
[7] = 700 mg, KAR5417 after 700 mg KAR5585 single oral, fasted, Cohort 4, Geo. Mean
[8] = 700 mg, KAR5417 after 700 mg KAR5585 single oral, fasted, Cohort 4, Mean

Work on `Nc1nc(O[C@H](c2ccc(Cl)cc2-c2ccccc2)C(F)(F)F)cc(N2CCC3(CC2)CN[C@H](C(=O)O)C3)n1` [KAR5417, (S)-8-(2-amino-6-((R)-1-(5-chloro-[1,1T-biphenyl]-2-yl)-2,2,2-trifluoroeth-oxy)pyrimidin-4-yl)-2,8-diazaspiro[4.5]decane-3-carboxylic acid] yielded an AUC(0-inf) (400 mg, AUC0-inf, Geometric Mean, Cohort 3A (Fasting), 400 mg KAR5585 single oral dose, fasting) of 3280 ng·h/mL, an AUC(0-inf) (400 mg, AUC0-inf, Geometric Mean, Cohort 3B (Fed), 400 mg KAR5585 single oral dose, fed) of 6630 ng·h/mL and an AUC [1] of 3120 ng·h/mL. It also gave an AUC [2] of 6360 ng·h/mL, an AUC [3] of 3120 ng·h/mL and an AUC [4] of 3500 ng·h/mL. The AUC [5] was 6360 ng·h/mL, the AUC [6] was 6440 ng·h/mL and the AUC(0-inf) (400 mg, AUC0-∞, KAR5417 after 400 mg KAR5585 single oral, fasted, Cohort 3A, Geo. Mean) was 3280 ng·h/mL. It also gave an AUC(0-inf) (400 mg, AUC0-∞, KAR5417 after 400 mg KAR5585 single oral, fasted, Cohort 3A, Mean) of 3650 ng·h/mL, an AUC(0-inf) (400 mg, AUC0-∞, KAR5417 after 400 mg KAR5585 single oral, fed, Cohort 3B, Geo. Mean) of 6630 ng·h/mL and an AUC(0-inf) (400 mg, AUC0-∞, KAR5417 after 400 mg KAR5585 single oral, fed, Cohort 3B, Mean) of 6710 ng·h/mL. The concentration at 12 h (400 mg, C12, KAR5417 after 400 mg KAR5585 single oral, fasted, Cohort 3A, Geo. Mean) was 75.2 ng/mL, the concentration at 12 h (400 mg, C12, KAR5417 after 400 mg KAR5585 single oral, fasted, Cohort 3A, Mean) was 82.5 ng/mL and the concentration at 12 h (400 mg, C12, KAR5417 after 400 mg KAR5585 single oral, fed, Cohort 3B, Geo. Mean) was 165 ng/mL. It also gave a concentration at 12 h (400 mg, C12, KAR5417 after 400 mg KAR5585 single oral, fed, Cohort 3B, Mean) of 169 ng/mL, a Cmax [1] of 444 ng/mL and a Cmax [2] of 831 ng/mL. For the same molecule, the Cmax [3] was 444 ng/mL, the Cmax [4] was 485 ng/mL and the Cmax [5] was 831 ng/mL. The Cmax [6] was 860 ng/mL, the AUC(0-t) (400 mg, Plasma AUC0-96, KAR5417 in plasma, 400 mg (fasted) KAR5585 single oral dose, mean) was 3630 ng·h/mL and the AUC(0-t) (400 mg, Plasma AUC0-96, KAR5417 in plasma, 400 mg (fed) KAR5585 single oral dose, mean) was 6590 ng·h/mL. The half-life (400 mg, fasted, Cohort 3A, Geo. Mean) was 9.29 h, the half-life (400 mg, fasted, Cohort 3A, Mean) was 11.3 h and the half-life (400 mg, fed, Cohort 3B, Geo. Mean) was 19.8 h. It also gave a half-life (400 mg, fed, Cohort 3B, Mean) of 20.5 h, a Tmax (400 mg, KAR5417 after 400 mg KAR5585 single oral, fasted, Cohort 3A) of 4 h and a Tmax (400 mg, KAR5417 after 400 mg KAR5585 single oral, fed, Cohort 3B) of 4 h. It also gave an AUC(0-t) (700 mg, AUC0-12, KAR5417 after 700 mg KAR5585 single oral, fasted, Cohort 4, Geo. Mean) of 3050 ng·h/mL, an AUC(0-t) (700 mg, AUC0-12, KAR5417 after 700 mg KAR5585 single oral, fasted, Cohort 4, Mean) of 4350 ng·h/mL and an AUC(0-t) (700 mg, AUC0-24, KAR5417 after 700 mg KAR5585 single oral, fasted, Cohort 4, Geo. Mean) of 3720 ng·h/mL. It also gave an AUC(0-t) (700 mg, AUC0-24, KAR5417 after 700 mg KAR5585 single oral, fasted, Cohort 4, Mean) of 5310 ng·h/mL, an AUC [7] of 3870 ng·h/mL and an AUC [8] of 5840 ng·h/mL. It also gave an AUC(0-inf) (700 mg, AUC0-∞, KAR5417 after 700 mg KAR5585 single oral, fasted, Cohort 4, Geo. Mean) of 4170 ng·h/mL, an AUC(0-inf) (700 mg, AUC0-∞, KAR5417 after 700 mg KAR5585 single oral, fasted, Cohort 4, Mean) of 6020 ng·h/mL and a concentration at 12 h (700 mg, C12, KAR5417 after 700 mg KAR5585 single oral, fasted, Cohort 4, Geo. Mean) of 93.8 ng/mL. The concentration at 12 h (700 mg, C12, KAR5417 after 700 mg KAR5585 single oral, fasted, Cohort 4, Mean) was 144 ng/mL, the Cmax [7] was 544 ng/mL and the Cmax [8] was 778 ng/mL. It also gave an AUC(0-t) (700 mg, Plasma AUC0-96, KAR5417 in plasma, 700 mg KAR5585 single oral dose, mean) of 5990 ng·h/mL.

— patent US20240041877A1, “DOSAGE REGIME AND METHOD FOR TREATING PULMONARY ARTERIAL HYPERTENSION” (Altavant Sciences GmbH, priority 2019, published 2024)
